Where two headings read alike, the source gives them in different places.
Legend:
[1] = design: method as in Li et al. [2017]; settings: rats; ref Li et al. [2017]; cited from earlier work
[2] = Extractable organofluorine (EOF) and fluorine mass balance in plasma and tissues at 48 h; type: in vivo, rat; settings: for concentration at 48 h: male, RccHan:WIST, rat, read-out: PFOA-fluorine equivalent
Description: Plasma and tissue samples taken at 48 h after exposure were subjected to EOF analysis. Extraction procedure followed the procedure described above with the exception that no mass labelled internal standards were spiked to the samples before extraction. The EOF content of the 1 mL extract was analyzed by combustion ion chromatography (CIC). Part of the extract (200 μL) was transferred to a LC vial with the addition of 10 μL of mass-labelled standards; after that, aqueous ammonium acetate (2 mM, 300 μL) was added to the vial for PFAS analysis using LC-MS/MS. The reported EOF concentrations as well as the concentration of PFOA for mass balance analysis were not recovery-corrected.
Levels of EOF in the sample extracts were determined with a combustion ion chromatography (CIC) system consisting of a combustion module (Analytik Jena, Germany), a 920 Absorber Module and a 930 Compact IC Flex ion chromatograph module (both from Metrohm, Switzerland). An ion exchange column (Metrosep A Supp 5–150/4.0), with carbonate buffer (64 mmol/L sodium carbonate and 20 mmol/L sodium bicarbonate) as the mobile phase, was used for the separation of anions; the absorber solution was water. The sample extract (100 μL) was set on a silica boat via an autosampler and placed into a furnace at 900–1000 °C. The combustion of the sample in the furnace converted organic fluorine and inorganic fluorine into hydrogen fluoride (HF), which was then trapped by MilliQ water. The fluoride concentration in the solution was analyzed using ion chromatography. […] Quantification was based on external calibration. The analytical conditions for ion chromatography have been reported elsewhere (Kärrman et al. [2021]).
The measured PFOA concentration (ng/mL) in the sample extract of the EOF analysis was converted to the corresponding fluoride-equivalent concentration (ng/mL F) using the following formula:1 CFPFAS=CPFAS*NF*AF/MWPFAS where CPFAS is the concentration of the target compound (i.e., PFOA), NF is the number of fluorine atoms in the target compound (i.e., 15), AF is the atomic weight of fluorine (g/mol, i.e., 19), and MWPFAS is the molecular weight of the target compound (i.e., 413). The sum of known extractable fluorine concentration (ΣCF_PFAS) was calculated by summing the fluorine concentrations from all individual PFASs. Values below limits of quantification (LOQ) were set for calculating ΣCF_PFAS. Levels of unidentified organofluorine were calculated by subtracting […], which in this present study only PFOA.

[3] = system: albumin in serum; design: method as in Han et al. [2003]; settings: ref Han et al. [2003]; cited from earlier work
[4] = PFOA in terminal plasma, lung lavage and tissues 48 h after dust exposure; type: in vivo, rat; settings: for Kp at 48 h / concentration at 48 h: male, RccHan:WIST, rat
[5] = design: method as in Li et al. [2017]; settings: humans, calculated; ref Li et al. [2017]; cited from earlier work

Compound: O=C(O)C(F)(F)C(F)(F)C(F)(F)C(F)(F)C(F)(F)C(F)(F)C(F)(F)F [PFOA, Perfluorooctanoic acid]
- Half-time [1]: a few days
- Proportion of PFOA to EOF in plasma ([2]; both exposure groups): 65–71%
- Contribution to EOF (%) ([2]; kidney, inhalation): 81%
- Contribution to EOF (%) ([2]; kidney, oral): 83%
- Contribution to EOF (%) ([2]; liver, inhalation): 87%
- Contribution to EOF (%) ([2]; liver, oral): 83%
- Contribution to EOF (%) ([2]; lung lavage, inhalation): 76%
- Contribution to EOF (%) ([2]; lung lavage, oral): 84%
- Contribution to EOF (%) ([2]; lung, inhalation): 86%
- Contribution to EOF (%) ([2]; lung, oral): 74%
- concentration at 48 h ([2]; 364 μg PFOA/kg BW, kidney, oral): 2160 ± 130 ng/g
- concentration at 48 h ([2]; 364 μg PFOA/kg BW, liver, oral): 6140 ± 340 ng/g
- concentration at 48 h ([2]; 364 μg PFOA/kg BW, lung, oral): 1160 ± 210 ng/g
- concentration at 48 h ([2]; 364 μg PFOA/kg BW, plasma, oral, not recovery-corrected): 1420 ± 240 ng/mL
- concentration at 48 h ([2]; inhaled, 164 μg PFOA/kg BW, kidney, inhalation): 2640 ± 530 ng/g
- concentration at 48 h ([2]; inhaled, 164 μg PFOA/kg BW, liver, inhalation): 6950 ± 650 ng/g
- concentration at 48 h ([2]; inhaled, 164 μg PFOA/kg BW, lung, inhalation): 21500 ± 2750 ng/g
- concentration at 48 h ([2]; inhaled, 164 μg PFOA/kg BW, plasma, inhalation, not recovery-corrected): 1530 ± 170 ng/mL
- concentration at 48 h ([2]; lung lavage (BALF), 364 μg PFOA/kg BW, lung lavage, oral): 210 ± 20 ng/mL
- concentration at 48 h ([2]; lung lavage (BALF), inhaled, 164 μg PFOA/kg BW, lung lavage, inhalation): 6870 ± 430 ng/mL
- Share of EOF levels explained by measured PFOA, all samples ([2]; plasma and tissues): 65–87%
- Contribution to EOF (%) ([2]; plasma, oral): 65%
- PFOA bound to albumin in serum [3]: more than 90%
- Liver:plasma ratio of PFOA concentration ([4]; 48 h, inhalation): 5.28 ± 1.3
- Kidney:plasma ratio of PFOA concentration ([4]; 48 h, oral gavage): 1.72 ± 0.3
- Liver:plasma ratio of PFOA concentration ([4]; 48 h, oral gavage): 4.89 ± 1.0
- Levels of PFOA in plasma, liver and kidney, inhalation compared to oral ([4]; 48 h post exposure): twice as high
- PFOA concentration ([4]; kidney, 48 h, inhalation): 3.84 ± 0.8 µg/g
- PFOA concentration ([4]; kidney, 48 h, oral gavage): 3.15 ± 0.2 µg/g
- PFOA concentration ([4]; liver, 48 h, inhalation): 10.1 ± 0.9 µg/g
- PFOA concentration ([4]; liver, 48 h, oral gavage): 8.94 ± 0.5 µg/g
- PFOA concentration ([4]; lung, 48 h, inhalation): 31.3 ± 4.0 µg/g
- PFOA concentration ([4]; lung, 48 h, oral gavage): 1.68 ± 0.3 µg/g
- Kp at 48 h ([4]; kidney, 364 μg PFOA/kg BW, 48 h, oral gavage, read-out: Kidney:plasma ratio of PFOA concentration): 1.72
- concentration at 48 h ([4]; kidney, inhaled, 164 μg PFOA/kg BW, kidney, 48 h, inhalation): 3840 ± 760 ng/g
- Kp at 48 h ([4]; kidney, inhaled, 164 μg PFOA/kg BW, 48 h, inhalation, read-out: Kidney:plasma ratio of PFOA concentration): 2.02 ± 0.7
- concentration at 48 h ([4]; kidney, po, 364 μg PFOA/kg BW, kidney, 48 h, oral gavage): 3150 ± 190 ng/g
- Kp at 48 h ([4]; liver, 364 μg PFOA/kg BW, 48 h, oral gavage, read-out: Liver:plasma ratio of PFOA concentration): 4.89
- concentration at 48 h ([4]; liver, inhaled, 164 μg PFOA/kg BW, liver, 48 h, inhalation): 10100 ± 880 ng/g
- Kp at 48 h ([4]; liver, inhaled, 164 μg PFOA/kg BW, 48 h, inhalation, read-out: Liver:plasma ratio of PFOA concentration): 5.28
- concentration at 48 h ([4]; liver, po, 364 μg PFOA/kg BW, liver, 48 h, oral gavage): 8940 ± 500 ng/g
- concentration at 48 h ([4]; lung lavage (BALF), inhaled, 164 μg PFOA/kg BW, lung lavage, 48 h, inhalation): 9980 ± 630 ng/mL
- concentration at 48 h ([4]; lung lavage (BALF), po, 364 μg PFOA/kg BW, lung lavage, 48 h, oral gavage): 310 ± 20 ng/mL
- concentration at 48 h ([4]; lung, inhaled, 164 μg PFOA/kg BW, lung, 48 h, inhalation): 31300 ± 4000 ng/g
- concentration at 48 h ([4]; lung, po, 364 μg PFOA/kg BW, lung, 48 h, oral gavage): 1680 ± 310 ng/g
- concentration at 48 h ([4]; plasma, inhaled, 164 μg PFOA/kg BW, terminal plasma, 48 h, inhalation of PFOA-coated dust (164 μg PFOA/kg BW)): 2030 ± 320 ng/mL
- concentration at 48 h ([4]; plasma, po, 364 μg PFOA/kg BW, terminal plasma, 48 h, oral gavage of PFOA-coated dust (364 μg PFOA/kg BW)): 1870 ± 350 ng/mL
- Distribution of PFOA to liver and kidney, inhalation compared to oral gavage ([4]; post exposure): ~2.5 times
- PFOA concentration ([4]; terminal plasma, 48 h, inhalation of PFOA-coated dust (164 μg PFOA/kg BW)): 1.97 ± 0.32 ng/µL
- Half-time [5]: 2.3–8.5 years

Source: article PMC9587079, “Bioavailability of inhaled or ingested PFOA adsorbed to house dust” (Environmental Science and Pollution Research International, 2022)
